The target in assay [1] is class A β-lactamase TEM-1 (Escherichia coli, UniProt P62593). The assay is described as follows: IC50 determination, β-lactamase inhibition (nitrocefin, spectrophotometric). The settings on record: enzyme 4.3 nM; 10 minutes preincubation at 25° C.; nitrocefin 50 μg/ml; pH 7.0. The assay is classed as biochemical, E. coli. The method, then:
(§1) IC50 Determination for the Penem Inhibitor
(§2) β-Lactamase inhibitory activity of the penem inhibitors was determined spectrophotometrically as described by Bush et al., [Bush, K., Macalintal, C., Rasmussen, B. A., Lee, V. and Yang, Y. Antimicrobial Agents and Chemotherapy 1993, 37, 851]. Homogeneously purified class A β-lactamases TEM-1 from E. coli and Imi-1 from Enterobacter cloacae, class B enzyme CcrA from Bacteroides fragilis and class C enzyme AmpC from Enterobacter cloaca were employed in the assay. The enzyme concentrations for TEM-1, Imi-1, CcrA and AmpC were 4.3, 7.1, 1.2 and 2.1 nM, respectively. A wide range of inhibitor concentrations were prepared in 50 mM PO4, pH 7.0 to include the possible IC50 values. The substrate used to initiate the enzyme reaction was nitrocefin at 50 μg/ml in the same buffer as the inhibitor. Initially the enzyme and inhibitor (20 μl each) were preincubated for 10 minutes at 25° C. prior to the addition of 160 μl volume of nitrocefin. Initial rates of hydrolysis were monitored for 5 minutes at 495 nm using a Molecular Devices Spectra Max 250 with kinetic protocol of SoftMax Program. Readings from the Spectra Max 250 were exported and transferred to Microsoft Excel. The percent of inhibition of each inhibitor concentration was calculated based on the control enzyme activity. The inhibitor concentration that caused a 50% reduction in the enzymatic activity (IC50) was determined graphically.

The target in assay [2] is class A β-lactamase Imi-1 (Enterobacter cloacae, UniProt Q46991). The description is as above. The class given is biochemical. On the procedure:
as §1, §2

Assay [3] addresses class B enzyme CcrA (Bacteroides fragilis, UniProt P25910). Described as above. The class given is biochemical. The method, then:
as §1, §2

Assay [4] concerns the target class C enzyme AmpC (Enterobacter cloacae, UniProt P05364). The assay is described as follows: biochemical. On the set-up: species or system Enterobacter cloaca. The method, then:
as §1, §2

The subject of assay [5] is Clinical isolates that have been adapted to cause infection in mice. The assay is described as follows: In vivo antibacterial protection, 7 day survival of infected mice. On the set-up: species or system mice strain CD-1. Particulars: Mus musculus, 168 h. From the text:
In Vivo Antibacterial Protection
Female mice strain CD-1, approximately 18-22 grams, were received from Charles River Laboratories and quarantined 7 days prior to use. In addition, mice may be rendered neutropenic using cytoxan.
Clinical isolates that have been adapted to cause infection in mice, are used in the experiment, including infections with strains of E. coli, K. pneumoniae, M. morganii, E. cloacae, S. marcescens, C. freundii, staphylococci, streptococci, P. aeruginosa and N. gonorrhoeae.
Mice are challenged by injecting 0.5 ml intraperitoneally or 0.05 ml intranasally of a predetermined bacterial inoculum suspended in broth, saline or hog gastric mucin (supplemented with dried bovine hemoglobin for N. gonorrhoeae). […] Antibacterial doses (dose concentration prepared by two fold serial dilutions of the antibiotic) are dissolved or suspended in 0.2% aqueous agar or methocel, phosphate buffered saline or an adjuvant are administered orally, subcutaneously or intravenously in the following manner: • a) Orally or subcutaneously: Dose volume of 0.5 ml administered ½ hr after infection. A second dose may be administered 3 hr. after infection for treatment of infections with more virulent organisms. • b) Intravenously: Dose volume of 0.2 ml, administered ½ hr. after infection. For the treatment of infections with more virulent organisms, more doses, up to 48 hr may be administered. (Intravenous dosing will not exceed 3 doses/24 hr period.) • c) Oral pretreatment: Under special circumstances, the pH of the stomach needs to be adjusted in order to increase the gastric stability of the antibiotic. For this purpose, 0.5 ml of phosphate buffered saline (pH7.8, 0.06M) (or specific approved adjuvant) is administered orally ½ hr after infection, followed 5 minutes later by 0.5 ml of antibiotic (also orally) contained in phosphate buffered saline (pH7.8, 0.06M). Animal Species
A detailed explanation as to the number of animals needed for the determination of in vivo efficacy follows: • A) Novel antibiotics are tested at 5 different dose levels with 5 mice per dose level at each of three routes of administration (oral, subcutaneous and intravenous). […] This would require 25 mice/route with 3 routes/antibiotic or 75 mice per novel compound tested. One to two novel antibiotics will be tested per experiment (75-150 mice) • B) The effectiveness of the new compound must be compared to that of a standard, or antibiotic of known effectiveness. Known or previously tested antibiotics are tested at 5 dose levels with 5 mice per dose level by a single route of administration, for a total of 25 mice/antibiotic. Usually 3-6 antibiotics will be tested per experiment. (75-150 mice). • C) Untreated controls—In each of the above tests, untreated animals are infected with 3 different concentrations of bacterial inoculum with 10 mice per concentration (30 mice total in each and every test). These untreated controls are used to determine and maintain the infection level between 10-100 LD50s as required for test to test comparison and validity. Determination of Protective Effects of Antibacterial Agents:
The protective effects of the antibacterial agent(s) are measured by the survival of the infected untreated as compared to the treated animals. […] A census of survivors is taken twice daily and at that time dead as well as moribund animals are removed. […] The test is performed three times on separate days to provide a statistically valid number of animals and to minimize variation in test results on a day to day and test to test basis.

The mark [6] stands for this setting: enzyme 1.2 nM, 10 minutes preincubation at 25° C., nitrocefin 50 μg/ml, pH 7.0, read-out: IC50 (nM) Class B Ccr.
Where [7] appears, read: Ratio of Piperacillin vs. Inhibitor 4:1, read-out: ED50.
The mark [8] stands for this setting: enzyme 7.1 nM, 10 minutes preincubation at 25° C., nitrocefin 50 μg/ml, pH 7.0, read-out: IC50 (nM) Class A Imi.
Where [9] appears, read: enzyme 2.1 nM, 10 minutes preincubation at 25° C., nitrocefin 50 μg/ml, pH 7.0, read-out: IC50 (nM) Class C AmpC.
Where [10] appears, read: Ratio of Piperacillin vs. Inhibitor not given, read-out: ED50.

In patent publication US7812014B2, “Bicyclic 6-alkylidene-penems as β-lactamase inhibitors” (priority 2002, dated 2010) one finds IC50 and ED50 data, which are given here for eight compounds.

Structures can show the parent of a compound that is named as a salt. Where two headings read alike, the source gives them in different places.

Sequence of class C enzyme AmpC (P05364 21-381): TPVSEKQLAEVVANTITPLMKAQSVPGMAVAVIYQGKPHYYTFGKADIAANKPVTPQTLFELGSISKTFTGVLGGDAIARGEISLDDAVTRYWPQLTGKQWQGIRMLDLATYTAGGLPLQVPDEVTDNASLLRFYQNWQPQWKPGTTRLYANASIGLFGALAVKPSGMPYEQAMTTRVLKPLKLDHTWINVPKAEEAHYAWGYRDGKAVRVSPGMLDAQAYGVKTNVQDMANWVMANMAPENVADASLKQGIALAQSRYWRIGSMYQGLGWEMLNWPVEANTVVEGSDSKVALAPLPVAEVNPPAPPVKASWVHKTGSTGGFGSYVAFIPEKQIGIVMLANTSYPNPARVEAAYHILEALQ
Sequence of class B enzyme CcrA (P25910 19-249): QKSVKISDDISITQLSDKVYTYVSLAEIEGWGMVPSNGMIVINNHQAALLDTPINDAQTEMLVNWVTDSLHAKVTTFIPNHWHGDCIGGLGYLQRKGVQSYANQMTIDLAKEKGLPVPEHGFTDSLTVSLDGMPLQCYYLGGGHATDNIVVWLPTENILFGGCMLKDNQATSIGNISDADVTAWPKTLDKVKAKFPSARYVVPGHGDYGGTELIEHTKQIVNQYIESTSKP
Sequence of class A β-lactamase TEM-1 (P62593 24-286 limits assumed): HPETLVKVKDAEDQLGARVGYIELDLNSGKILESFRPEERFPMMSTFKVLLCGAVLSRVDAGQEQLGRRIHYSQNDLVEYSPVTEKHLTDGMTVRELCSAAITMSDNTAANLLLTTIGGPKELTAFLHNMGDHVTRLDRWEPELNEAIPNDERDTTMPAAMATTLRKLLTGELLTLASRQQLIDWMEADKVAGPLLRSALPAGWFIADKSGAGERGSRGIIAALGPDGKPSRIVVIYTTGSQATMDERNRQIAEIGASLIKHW
Sequence of class A β-lactamase Imi-1 (Q46991 28-292): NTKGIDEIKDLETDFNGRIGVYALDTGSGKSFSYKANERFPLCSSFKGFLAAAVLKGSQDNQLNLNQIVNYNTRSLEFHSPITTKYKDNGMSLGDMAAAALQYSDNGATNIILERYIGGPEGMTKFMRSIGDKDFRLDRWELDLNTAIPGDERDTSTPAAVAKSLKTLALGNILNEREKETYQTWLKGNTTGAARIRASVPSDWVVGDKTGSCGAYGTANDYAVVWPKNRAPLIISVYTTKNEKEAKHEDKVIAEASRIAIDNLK

`O=C([O-])C1=CS[C@@H]2/C(=C\c3cc4n(n3)CCCC4)C(=O)N12.[Na+]` [Example 9, (5R)(6Z)-7-Oxo-6-(4,5,6,7-tetrahydropyrazolo[1,5-a]pyridin-2-ylmethylene)-4-thia-1-azabicyclo[3.2.0]hept-2-ene-2-carboxylic acid, sodium salt]: the IC50 came to 2.2 nM in assay [1], 90 nM in assay [2], 62 nM in assay [3] (setting [6]) and 3.2 nM in assay [4]. In assay [5] (setting [7]), the ED50 is 31.3 mg/kg.

As for `O=C(O)C1=CS[C@@H]2/C(=C\c3cc4n(n3)CCS(=O)(=O)C4)C(=O)N12` [Example 24, (5R),(6Z)-6-(5,5-Dioxo-4,5,6,7-tetrahydro-5λ^6-pyrazolo[5,1-c][1,4]thiazin-2-ylmethylene)-7-oxo-4-thia-1-azabicyclo[3.2.0]hept-2-ene-2-carboxylic acid, sodium salt], the IC50 in assay [1] came to 1.1 nM; in assay [2] (setting [8]), 56 nM; in assay [3] it was 4 nM; in assay [4] (setting [9]), 1.5 nM. Moreover, the ED50 in assay [5] (setting [10]) was found to be 64 mg/kg.

Turning to `O=C(O)C1=CS[C@@H]2/C(=C\c3cc4n(n3)CCNC4)C(=O)N12` [Example 25, (5R),(6Z)-7-Oxo-6-(4,5,6,7-tetrahydropyrazolo[1,5-a]pyrazin-2-ylmethylene)-4-thia-1-aza-bicyclo[3.2.0]hept-2-ene-2-carboxylic acid, sodium salt], the IC50 came to 1.1 nM in assay [1], 123 nM in assay [2] (setting [8]), 162 nM in assay [3] (setting [6]) and 2.7 nM in assay [4] (setting [9]). For the same compound, in assay [5] (setting [10]), the ED50 amounted to 30 mg/kg.

`O=C(O)C1=CS[C@@H]2/C(=C\c3cc4c(o3)CCC4)C(=O)N12` [Example 27, (5R),(6Z)-6-(5,6-Dihydro-4H-cyclopenta[b]furan-2-ylmethylene)-7-oxo-4-thia-1-azabicyclo[3.2.0]hept-2-ene-2-carboxylic acid, sodium salt]: the 50% inhibitory concentration (IC50) in assay [1] amounted to 2 nM; in assay [2] (setting [8]), 5.5 nM; in assay [3] (setting [6]), 73 nM; in assay [4] (setting [9]), 2 nM. The ED50 in assay [5] (setting [10]) came to 28 mg/kg.

For `O=C(O)C1=CS[C@@H]2/C(=C\c3cn4c(n3)COCC4)C(=O)N12` [Example 7, (5R),(6Z)-6-(5,6-Dihydro-8H-imidazo[2,1-c][1,4]oxazin-2-ylmethylene)-7-oxo-4-thia-1-azabicyclo[3.2.0]hept-2-ene-2-carboxylic acid, sodium salt], the IC50 was 0.4 nM in assay [1], 7.8 nM in assay [2], 66 nM in assay [3] (setting [6]) and 4.8 nM in assay [4] (setting [9]). Also, the ED50 in assay [5] (setting [7]) turned out to be 22.8 mg/kg.

Regarding `O=C([O-])C1=CS[C@@H]2/C(=C\c3cc4n(n3)CSC4)C(=O)N12.[Na+]` [Example 12, (5R)(6Z)-7-Oxo-6-(4H-5-thia-1,6a-diazapentalen-2-ylmethylene)-4-thia-1-azabicyclo[3.2.0]hept-2-ene-2-carboxylic acid, sodium salt], the IC50 in assay [1] is 1.4 nM; in assay [2] (setting [8]) it was 56 nM; in assay [3] (setting [6]), 110 nM; in assay [4], 1.5 nM. For the same compound, the ED50 in assay [5] (setting [7]) is 20 mg/kg.

`O=C(O)C1=CS[C@@H]2/C(=C\c3cc4n(n3)CCOC4)C(=O)N12` [Example 35, (5R,6Z)-6-(6,7-dihydro-4H-pyrazolo[5,1-c][1,4]oxazin-2-ylmethylene)-7-oxo-4-thia-1-azabicyclo[3.2.0]hept-2-ene-2-carboxylic acid]: the IC50 in assay [1] was determined as 4.2 nM; in assay [2], 230 nM; in assay [3] (setting [6]), 30 nM; in assay [4] (setting [9]), 6.1 nM. Further, the ED50 in assay [5] (setting [10]) was 19 mg/kg.

`CN1CCn2cc(/C=C3/C(=O)N4C(C(=O)O)=CS[C@H]34)nc2C1` [Example 2, (5R),(6Z)-6-(7-Methyl-5,6,7,8-tetrahydroimidazo[1,2-a]pyrazin-2-ylmethylene)-7-oxo-4-thia-1-aza-bicyclo[3.2.0]hept-2-ene-2-carboxylic acid, sodium salt]: the IC50 in assay [1] stood at 4.4 nM; in assay [2] (setting [8]), 22 nM; in assay [3] (setting [6]) it was 120 nM; in assay [4] (setting [9]), 5.8 nM. Moreover, the ED50 in assay [5] (Ratio of Piperacillin vs. Inhibitor 2:1, read-out: ED50) was above 64 mg/kg.
